# Reference: article PMC9428768 (RSC Chemical Biology, 2022)
# Columns and labels:
# PBD = conditions: cited from earlier work
# HeLa cells = experiment: MTT assay; format: cell-based; conditions: Homo sapiens, 48 h, read-out: Cytotoxicity (HeLa cells)
compound,measurement,setting,value
PLHSpT [Ligand 1],less PBD-binding affinity than peptide 2,PBD,approximately 1000 fold
CC[C@@H]1C(=O)N(C)c2cnc(Nc3ccc(C(=O)NC4CCN(C)CC4)cc3OC)nc2N1C1CCCC1 [BI2536],IC50,HeLa cells,32 ± 1.6 nM
